Data published in patent US10368545B2, “Substituted 2-thioimidazolylcarboxamides as pesticides” (BAYER CROPSCIENCE AKTIENGESELLSCHAFT, priority 2015, dated 2019).
Where “and” joins values, the source holds several entries; their conditions need not be identical. Identical values can stand only once. Like-named read-outs stand apart in the source and are kept apart here.

Tests used:
[1] = tested on: green peach aphid (Myzus persicae); assay: Myzus persicae spray test (Chinese cabbage leaf discs); assay type: in vivo; settings: for pest or weed control at 500 g/ha: Myzus persicae, foliar, read-out: efficacy (aphids killed)
Procedure: Myzus persicae—Spray Test
Solvent: 78 parts by weight of acetone • • 1.5 parts by weight of dimethylformamide
(§1) Emulsifier: alkylaryl polyglycol ether
(§2) To produce a suitable active compound preparation, 1 part by weight of active compound is dissolved using the stated parts by weight of solvent and made up with water containing an emulsifier concentration of 1000 ppm until the desired concentration is attained. To produce further test concentrations, the preparation is diluted with emulsifier-containing water.
Discs of Chinese cabbage leaves (Brassica pekinensis) infested by all stages of the green peach aphid (Myzus persicae) are sprayed with an active compound preparation of the desired concentration.
After 5 or 6 days, the efficacy in % is determined. 100% means that all the aphids were killed; 0% means that no aphids were killed.

[2] = tested on: green peach aphid (Myzus persicae); assay: Contrasting example: Myzus persicae spray test (MYZUPE); assay type: in vivo; settings: for pest or weed control at 100 g/ha: Myzus persicae, 144 h, read-out: % efficacy
Procedure: Myzus persicae—Spray Test (MYZUPE)
Solvents: 78.0 parts by weight of acetone • • 1.5 parts by weight of dimethylformamide
as §1, §2
Discs of Chinese cabbage leaves (Brassica pekinensis), infested by all stages of the green peach aphid (Myzus persicae) are sprayed with an active compound preparation of the desired concentration.
After the desired period of time, the efficacy in % is determined. 100% means that all aphids were killed; 0% means that no aphids were killed.

[3] = log P by HPLC on reversed-phase C18 columns (OECD Guideline 117); assay type: physicochemical
Procedure: The log P values were determined in accordance with OECD Guideline 117 (EC Directive 92/69/EEC) by HPLC (high-performance liquid chromatography) using reversed-phase (RP) columns (C18), by the following methods:
[a] The LC-MS determination in the acidic range was carried out at pH 2.7 with 0.1% aqueous formic acid and acetonitrile (contains 0.1% formic acid) as mobile phases; linear gradient from 10% acetonitrile to 95% acetonitrile.
[b] LC-MS determination in the neutral range was carried out at pH 7.8 with 0.001 molar aqueous ammonium hydrogencarbonate solution and acetonitrile as mobile phases; linear gradient from 10% acetonitrile to 95% acetonitrile.

[4] = application rate 500 g/ha, after 5 or 6 days, Chinese cabbage leaf discs
[5] = reversed-phase C18 HPLC column, pH 2.7, acidic range, pH 2.7, 0.1% aqueous formic acid / acetonitrile, read-out: log P[a]
[6] = reversed-phase C18 HPLC column, pH 7.8, neutral range, pH 7.8, 0.001 molar aqueous ammonium hydrogencarbonate / acetonitrile, read-out: log P[n]
[7] = reversed-phase C18 HPLC column, pH 2.7, method [a], read-out: logP[a]
[8] = reversed-phase C18 HPLC column, pH 7.8, method [b], read-out: logP[b]

Structure (SMILES)	logP[a] ([3]; method [a])	logP[b] ([3]; method [b])	efficacy (aphids killed) [1, 4]	% efficacy ([2]; MYZUPE, 100 g ai/ha, 6 dat)	further results
Cc1cc(C)nc(Sc2ncc(C(=O)N(C)c3cccnc3)n2C)n1 [I-A-1]	–	–	–	–	pest or weed control at 500 g/ha [1, 4]: 100%; pest or weed control at 100 g/ha ([2]; MYZUPE, 100 g ai/ha, 6 dat): 100%; log P[a] ([3]; acidic range, pH 2.7, 0.1% aqueous formic acid / acetonitrile): 1.26; log P[n] ([3]; neutral range, pH 7.8, 0.001 molar aqueous ammonium hydrogencarbonate / acetonitrile): 1.46; chromatographic logP [3, 5]: 1.31; chromatographic logP [3, 6]: 1.41
CN(C(=O)c1cnc(SCC2CC2)n1C)c1cccnc1 [I-A-2]	–	–	–	–	pest or weed control at 500 g/ha [1, 4]: 100%; pest or weed control at 100 g/ha ([2]; MYZUPE, 100 g ai/ha, 6 dat): 90%; chromatographic logP [3, 5]: 1.28; chromatographic logP [3, 6]: 1.81
CN(C(=O)c1cnc(Sc2ncccn2)n1C)c1cccnc1 [I-A-3]	–	–	–	–	pest or weed control at 500 g/ha [1, 4]: 100%; pest or weed control at 100 g/ha ([2]; MYZUPE, 100 g ai/ha, 6 dat): 90%; chromatographic logP [3, 5]: 0.69; chromatographic logP [3, 6]: 0.98
CCCCSc1ncc(C(=O)N(C)c2cccnc2)n1C [I-A-5]	1.67	1.99	90%	100%	–
CN(C(=O)c1cnc(S(C)(=O)=O)n1C)c1cccnc1 [I-A-8]	0.45	0.67	100%	90%	–
CN(C(=O)c1cnc(SCC(F)(F)F)n1C)c1cccnc1 [I-A-10]	1.41	1.54	100%	100%	–
CCSCCSc1ncc(C(=O)N(C)c2cccnc2)n1C [I-A-14]	1.61	1.87	90%	90%	–
COCCSc1ncc(C(=O)N(C)c2cccnc2)n1C [I-A-18]	0.76	1.14	100%	90%	–
CCOCCSc1ncc(C(=O)N(C)c2cccnc2)n1C [I-A-22]	1.04	1.41	100%	90%	–
CSCCSc1ncc(C(=O)N(C)c2cccnc2)n1C [I-A-26]	1.23	1.55	100%	70%	–
CN(C(=O)c1cnc(SC(F)(F)F)n1C)c1cccnc1 [I-A-37]	–	–	–	–	pest or weed control at 500 g/ha [1]: 100%; pest or weed control at 100 g/ha [2]: 100%; chromatographic logP [3, 7]: 1.29; chromatographic logP [3, 8]: 1.45
CN(C(=O)c1cnc(SC(F)F)n1C)c1cccnc1 [I-A-38]	–	–	–	–	pest or weed control at 500 g/ha [1]: 90%; pest or weed control at 100 g/ha [2]: 70%; chromatographic logP ([3]; pH 2.7, method [a], read-out: logP[a]): 0.91; chromatographic logP ([3]; pH 7.8, method [b], read-out: logP[b]): 1.17
CCS(=O)(=O)c1ncc(C(=O)N(C)c2cccnc2)n1C [I-A-40]	0.68	0.88	100%	90%	–
CNC(=O)C[S+]([O-])c1ncc(C(=O)N(C)c2cccnc2)n1C (stereo not drawn) [I-A-43]	–	–	–	–	pest or weed control at 100 g/ha ([2]; MYZUPE, 100 g ai/ha, 6 dat): 70%; chromatographic logP [3, 7]: 0.27; chromatographic logP [3, 8]: 0.22
CSc1ncc(C(=O)N(C)c2cccnc2)n1C [I-A-45]	–	–	–	–	pest or weed control at 500 g/ha [1, 4]: 100%; pest or weed control at 100 g/ha ([2]; MYZUPE, 100 g ai/ha, 6 dat): 90%; chromatographic logP [3, 7]: 0.54; chromatographic logP [3, 8]: 1.04
CN(C(=O)c1cnc(SCC(F)(F)C(F)(F)Cl)n1C)c1cccnc1 [I-A-46]	2.09	2.17	100%	–	% efficacy ([2]; MYZUPE, 100 g ai/ha, 5 dat): 90%
CN(C(=O)c1cnc(SCCC(F)(F)F)n1C)c1cccnc1 [I-A-47]	1.65	1.84	100%	–	% efficacy ([2]; MYZUPE, 100 g ai/ha, 5 dat): 90%
CN(C(=O)c1cnc(SCCCF)n1C)c1cccnc1 [I-A-48]	1.11	1.40	100%	–	% efficacy ([2]; MYZUPE, 100 g ai/ha, 5 dat): 90%
CN(C(=O)c1cnc(SCC(F)(F)C(F)F)n1C)c1cccnc1 [I-A-49]	1.55	1.71	100%	–	% efficacy ([2]; MYZUPE, 100 g ai/ha, 5 dat): 90%
CN(C(=O)c1cnc(SCCSCC(F)(F)F)n1C)c1cccnc1 [I-A-50]	1.94	2.10	100%	–	% efficacy ([2]; MYZUPE, 100 g ai/ha, 5 dat): 100%
CN(C(=O)c1cnc(SC2CCSCC2)n1C)c1cccnc1 [I-A-51]	1.47	1.73	100%	–	% efficacy ([2]; MYZUPE, 100 g ai/ha, 5 dat): 100%
CN(C(=O)c1cnc(SC2CCOCC2)n1C)c1cccnc1 [I-A-52]	0.90	1.25	100%	–	% efficacy ([2]; MYZUPE, 100 g ai/ha, 5 dat): 100%
CN(C(=O)c1cnc(Sc2cccc(C(F)(F)F)c2)n1C)c1cccnc1 [I-A-61]	–	–	90%	90%	–
CN(C(=O)c1cnc(Sc2ccc(F)cc2)n1C)c1cccnc1 [I-A-62]	–	–	–	–	pest or weed control at 500 g/ha [1, 4]: 90%; pest or weed control at 100 g/ha ([2]; MYZUPE, 100 g ai/ha, 6 dat): 70%; chromatographic logP [3, 7]: 1.66; chromatographic logP [3, 8]: 1.87
CN(C(=O)c1cnc([S+]([O-])c2cc(Cl)cc(Cl)c2)n1C)c1cccnc1 (stereo not drawn) [I-A-77]	–	–	90%	70%	–
Cc1ccc(Sc2ncc(C(=O)N(C)c3cccnc3)n2C)nc1 [I-A-109]	–	–	90%	70%	–

Now from value to compound, other results behind:

logP[a] ([3]; method [a])	logP[b] ([3]; method [b])	Structure (SMILES)	efficacy (aphids killed) [1, 4]	% efficacy ([2]; MYZUPE, 100 g ai/ha, 6 dat)	further results
2.0	2.12	CSc1cccc(Sc2ncc(C(=O)N(C)c3cccnc3)n2C)c1 [I-A-9]	–	70%	efficacy (aphids killed) ([1]; application rate 20 g/ha, after 5 or 6 days, Chinese cabbage leaf discs): 90%
1.55	1.75	CN(C(=O)c1cnc(Sc2ccccc2)n1C)c1cccnc1 [I-A-11]	100%	90%	–
1.89	2.03	Cc1ccc(Sc2ncc(C(=O)N(C)c3cccnc3)n2C)cc1 [I-A-12]	90%	70%	–
1.23	1.53	CC(C)Sc1ncc(C(=O)N(C)c2cccnc2)n1C [I-A-19]	100%	90%	–
1.31	1.60	CCCSc1ncc(C(=O)N(C)c2cccnc2)n1C [I-A-21]	100%	100%	–
1.08 and 1.11	1.40	C=CCSc1ncc(C(=O)N(C)c2cccnc2)n1C [I-A-27]	90%	70%	–
0.87	1.22	C#CCSc1ncc(C(=O)N(C)c2cccnc2)n1C [I-A-30]	90%	90%	–
0.95	1.31	CCSc1ncc(C(=O)N(C)c2cccnc2)n1C [I-A-36]	90%	90%	–
2.68	2.76	CC(C)CCSc1ncc(C(=O)N(C)c2cccnc2)n1C [I-A-53]	100%	–	% efficacy ([2]; MYZUPE, 100 g ai/ha, 5 dat): 100%
0.63	0.98	CN(C(=O)c1cnc(SC2COC2)n1C)c1cccnc1 [I-A-54]	100%	–	% efficacy ([2]; MYZUPE, 100 g ai/ha, 5 dat): 90%
2.86	2.92	CN(C(=O)c1cnc(Sc2cc(Cl)c(Cl)cc2Cl)n1C)c1cccnc1 [I-A-56]	–	70%	–
1.62	1.79	COc1ccc(Sc2ncc(C(=O)N(C)c3cccnc3)n2C)cc1 [I-A-58]	90%	70%	–
1.55	2.11	CN(C)c1ccc(Sc2ncc(C(=O)N(C)c3cccnc3)n2C)cc1 [I-A-59]	90%	90%	–
2.55	2.58	CN(C(=O)c1cnc(Sc2cc(Cl)ccc2Cl)n1C)c1cccnc1 [I-A-60]	90%	70%	–
2.63	2.71	CN(C(=O)c1cnc(Sc2ccc(Cl)c(C(F)(F)F)c2)n1C)c1cccnc1 [I-A-64]	90%	70%	–
1.01	1.18	CN(C(=O)c1cnc(Sc2ccccn2)n1C)c1cccnc1 [I-A-65]	100%	100%	–
